Reference: ChEMBL document CHEMBL1201862, “PubChem BioAssay data set” (2004)
Active and inactive are the calls of the source.

Key:
[1] = luciferase reporter signal suppression in cells – H4 neuroglioma cells, luminescence, dose response (AID 1990); format: functional, cell-based
BJ [2] = assay: BJ-TERT fibroblast viability loss – cell-based, RAS-independent, luminescence, dose response (AID 1933); format: functional; conditions: Homo sapiens
[3] = Luminescence Cell-Based Dose Response HTS to Identify Inhibitors of 5'UTR Stem-Loop Driven Prion Protein mRNA Translation in H4 Neuroglioblastoma Cells. [Related pubchem assays: 1827 (Project Summary), 1813 (Primary HTS)]; format: functional
[4] = alpha-synuclein stem-loop luciferase translation blockers – H4 neuroglioma cells, luminescence, confirmation (AID 1988); format: functional, cell-based
BJ [5] = assay: cells; format: functional, cell-based; conditions: Homo sapiens
[6] = viability of PTEN-deleted HCT116 cells – cell-based, HCT116 PTEN knockout, dose response (AID 1047); format: functional;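 note: HCT116 colon tumor cells with PTEN knocked out; cells exposed to compound for 60 hours before readout; potency for loss of cell viability measured by luminescence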
Galanin receptor type 2 = Galanin receptor type 2 (Homo sapiens, UniProt O43603); assay: Dose Response cell-based high-throughput screening assay to identify agonists of galanin receptor 2 (GALR2). [Related pubchem assays: 864 ]; format: functional
[7] = viability of HCT116 lacking mutant beta-catenin – cell-based, human colon tumor, dose response (AID 1045); format: functional;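 note: HCT116 colon tumor cells with beta catenin knocked out; cells exposed to compound for 60 hours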
BJ [8] = assay: BJ-TERT-LT-ST fibroblast viability loss – cell-based, RAS-independent, luminescence, dose response (AID 1935); format: functional; conditions: Homo sapiens;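 note: BJ fibroblasts immortalized with TERT plus LT and ST oncogenes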
[9] = DRD fibroblast viability loss – cell-based, non-viral oncogenic, luminescence, dose response (AID 1934); format: functional; conditions: Homo sapiens
[10] = Cytotoxicity screening for potential Inhibitors of Bacterial Capsule Biogenesis. [Related pubchem assays (depositor defined):AID488970]; format: functional
BJ [11] = assay: growth inhibition of engineered Ras-driven BJ cells – cell-based, alamar blue fluorescence, cherrypicked samples, dose response (AID 2631); format: functional; conditions: Homo sapiens;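 note: confirmatory dose-response assay in RAS-dependent BJ fibroblasts engineered with TERT, LT and ST, with cytotoxicity read by fluorescence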
Melanocortin receptor 4 = Melanocortin receptor 4 (Homo sapiens, UniProt P32245); format: functional, cell-based;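 note: Cell-based assay with luminescence read-out, confirmatory dose-response testing for agonist activity of biased ligands at MC4R; human U2OS cells with tagged receptor and beta-arrestin; potency of agonists that increase receptor coupling to beta-arrestin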
Chain of Melanocortin receptor 4 (P32245 whole entry): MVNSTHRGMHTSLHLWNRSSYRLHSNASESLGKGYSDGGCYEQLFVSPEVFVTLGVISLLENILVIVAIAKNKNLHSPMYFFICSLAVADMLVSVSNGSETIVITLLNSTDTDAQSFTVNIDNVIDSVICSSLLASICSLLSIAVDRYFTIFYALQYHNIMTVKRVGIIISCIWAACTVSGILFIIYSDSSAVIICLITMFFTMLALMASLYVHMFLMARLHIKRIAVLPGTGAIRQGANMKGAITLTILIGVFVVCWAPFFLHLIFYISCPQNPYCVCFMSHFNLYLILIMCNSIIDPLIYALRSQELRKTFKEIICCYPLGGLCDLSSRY

[12] = NIH-3T3 fibroblast cytotoxicity, dose response, cytotoxicity control, cell-based, fluorescence, Alamar Blue, secondary assay (AID 2327); format: functional;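 note: NIH-3T3 mouse fibroblasts cultured with fluconazole at 8 µg/mL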
[13] = fluconazole-exposed Candida albicans growth modulators – fluorescence, retest, confirmation (AID 2467); format: functional, cell-based
[14] = target: Intestinal-type alkaline phosphatase (Mus musculus, UniProt P24822); assay: PubChem AID 488874; format: functional
Chain of Intestinal-type alkaline phosphatase (Mus musculus, UniProt P24822) (P24822 whole entry): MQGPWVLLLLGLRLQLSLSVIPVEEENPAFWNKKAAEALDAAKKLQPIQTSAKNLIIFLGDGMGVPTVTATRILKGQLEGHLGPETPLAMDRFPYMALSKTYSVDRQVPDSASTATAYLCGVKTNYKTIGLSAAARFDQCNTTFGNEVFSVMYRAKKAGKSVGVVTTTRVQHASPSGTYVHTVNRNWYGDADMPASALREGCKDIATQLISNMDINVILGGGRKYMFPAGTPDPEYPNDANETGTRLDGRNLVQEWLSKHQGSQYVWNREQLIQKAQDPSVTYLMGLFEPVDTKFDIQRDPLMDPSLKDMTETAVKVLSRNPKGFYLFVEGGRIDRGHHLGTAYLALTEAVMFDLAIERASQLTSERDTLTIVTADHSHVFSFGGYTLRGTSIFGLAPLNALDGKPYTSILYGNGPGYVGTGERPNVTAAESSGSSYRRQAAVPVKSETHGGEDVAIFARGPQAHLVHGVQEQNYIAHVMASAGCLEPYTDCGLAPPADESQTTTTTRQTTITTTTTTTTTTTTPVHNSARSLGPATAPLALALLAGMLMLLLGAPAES

[15] = target: T1, Intestinal-type alkaline phosphatase (Homo sapiens, UniProt P09923); assay: human intestinal alkaline phosphatase activators, dose response, biochemical, luminescence, uHTS hits (AID 463120); format: functional
T1 sequence (P09923 whole entry): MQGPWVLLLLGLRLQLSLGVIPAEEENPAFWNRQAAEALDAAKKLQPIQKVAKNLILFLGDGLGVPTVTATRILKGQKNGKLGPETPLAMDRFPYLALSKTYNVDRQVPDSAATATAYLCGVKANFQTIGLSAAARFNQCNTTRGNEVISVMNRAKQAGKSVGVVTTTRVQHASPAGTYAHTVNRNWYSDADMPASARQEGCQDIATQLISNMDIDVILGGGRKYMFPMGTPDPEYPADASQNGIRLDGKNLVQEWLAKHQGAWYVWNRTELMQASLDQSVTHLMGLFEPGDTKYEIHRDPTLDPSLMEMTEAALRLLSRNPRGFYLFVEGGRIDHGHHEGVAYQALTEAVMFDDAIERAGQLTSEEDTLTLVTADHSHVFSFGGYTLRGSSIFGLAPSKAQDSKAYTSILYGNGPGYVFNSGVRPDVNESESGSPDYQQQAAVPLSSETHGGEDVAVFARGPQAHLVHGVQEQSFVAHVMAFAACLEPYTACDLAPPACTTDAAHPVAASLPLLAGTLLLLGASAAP

[16] = target: T1, Intestinal-type alkaline phosphatase; assay: activation of human intestinal alkaline phosphatase – biochemical, luminescent, uHTS hits, set 2, dose response (AID 488817); format: functional;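 note: potency of activators that raise enzyme activity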
[17] = target: T2, Alkaline phosphatase, tissue-nonspecific isozyme (Homo sapiens, UniProt P05186); assay: activation of tissue-nonspecific alkaline phosphatase – biochemical, TNAP isozyme, human IAP uHTS hits, selectivity assay for human IAP activator project, dose response (AID 488886); format: functional;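 note: potency of compounds raising TNAP activity as a selectivity check on IAP activators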
T2 sequence (P05186 whole entry): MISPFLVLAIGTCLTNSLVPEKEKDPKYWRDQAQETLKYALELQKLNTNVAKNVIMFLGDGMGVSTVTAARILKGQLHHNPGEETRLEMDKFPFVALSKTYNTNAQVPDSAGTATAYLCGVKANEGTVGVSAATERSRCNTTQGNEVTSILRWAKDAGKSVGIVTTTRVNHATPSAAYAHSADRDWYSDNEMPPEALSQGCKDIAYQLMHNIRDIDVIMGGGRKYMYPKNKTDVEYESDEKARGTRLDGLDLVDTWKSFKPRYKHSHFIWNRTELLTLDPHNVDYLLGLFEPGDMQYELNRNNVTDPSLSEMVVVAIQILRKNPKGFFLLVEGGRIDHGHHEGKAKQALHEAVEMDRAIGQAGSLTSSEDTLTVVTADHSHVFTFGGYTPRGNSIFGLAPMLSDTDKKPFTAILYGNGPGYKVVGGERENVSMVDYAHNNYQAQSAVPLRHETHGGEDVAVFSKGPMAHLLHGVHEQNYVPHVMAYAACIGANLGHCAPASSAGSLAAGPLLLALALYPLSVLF

[18] = HGIII-sPLA2 enzyme inhibition potency – biochemical, QFRET, IC50, dose response (AID 743457);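 note: green fluorescence rise as the enzyme cleaves BODIPY PC-A2 in liposomes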
[19] = target: G-protein coupled receptor 35 (Homo sapiens, UniProt Q9HC97); assay: inhibition of zaprinast-stimulated GPR35 beta-arrestin translocation – imaging, U2OS, beta-arrestin-GFP, zaprinast agonist, primary screen (AID 2058); format: functional;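 note: antagonist potency meaning inhibition of agonist-induced arrestin redistribution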
Chain of G-protein coupled receptor 35 (Q9HC97 whole entry): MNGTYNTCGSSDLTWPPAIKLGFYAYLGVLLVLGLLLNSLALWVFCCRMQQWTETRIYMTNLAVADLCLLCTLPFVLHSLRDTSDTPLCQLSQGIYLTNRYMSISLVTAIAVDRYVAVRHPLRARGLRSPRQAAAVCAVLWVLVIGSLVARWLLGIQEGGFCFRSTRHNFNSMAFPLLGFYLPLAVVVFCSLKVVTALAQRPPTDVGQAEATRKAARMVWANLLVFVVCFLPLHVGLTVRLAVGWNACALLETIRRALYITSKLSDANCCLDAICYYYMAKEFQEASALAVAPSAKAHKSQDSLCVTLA

[20] = target: T3, Rac GTPase-activating protein 1 (Homo sapiens, UniProt Q9H0H5); assay: blockers of MgcRacGAP-driven Rac1 GTP hydrolysis – biochemical, ADP Hunter fluorescence, primary and confirmatory, confirmation (AID 624330); format: functional
T3 sequence (Q9H0H5 whole entry): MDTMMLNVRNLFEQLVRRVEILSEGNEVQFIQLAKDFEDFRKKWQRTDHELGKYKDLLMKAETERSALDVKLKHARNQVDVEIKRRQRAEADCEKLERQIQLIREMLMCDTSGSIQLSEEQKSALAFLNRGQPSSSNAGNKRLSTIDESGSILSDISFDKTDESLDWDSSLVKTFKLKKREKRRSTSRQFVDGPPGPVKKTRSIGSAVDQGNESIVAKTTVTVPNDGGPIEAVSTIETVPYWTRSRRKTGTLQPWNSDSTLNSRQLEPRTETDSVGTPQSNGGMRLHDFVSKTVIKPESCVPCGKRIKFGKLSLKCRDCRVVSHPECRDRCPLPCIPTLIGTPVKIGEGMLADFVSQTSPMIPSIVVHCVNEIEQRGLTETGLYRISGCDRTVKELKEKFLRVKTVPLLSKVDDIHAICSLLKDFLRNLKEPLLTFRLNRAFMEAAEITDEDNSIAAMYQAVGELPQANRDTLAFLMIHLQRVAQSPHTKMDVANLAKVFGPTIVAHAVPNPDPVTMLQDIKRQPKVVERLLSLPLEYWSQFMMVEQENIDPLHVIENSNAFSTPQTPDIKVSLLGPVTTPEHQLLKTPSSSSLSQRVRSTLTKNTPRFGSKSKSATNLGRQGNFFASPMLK

Trypsin = Trypsin (Sus scrofa, UniProt P00761); assay: trypsin protease activity blockade – biochemical, quenched peptide fluorescence, cherry-pick, selectivity assay for Rce1 protease inhibitor project, dose response (AID 488789)
Chain of Trypsin (P00761 whole entry): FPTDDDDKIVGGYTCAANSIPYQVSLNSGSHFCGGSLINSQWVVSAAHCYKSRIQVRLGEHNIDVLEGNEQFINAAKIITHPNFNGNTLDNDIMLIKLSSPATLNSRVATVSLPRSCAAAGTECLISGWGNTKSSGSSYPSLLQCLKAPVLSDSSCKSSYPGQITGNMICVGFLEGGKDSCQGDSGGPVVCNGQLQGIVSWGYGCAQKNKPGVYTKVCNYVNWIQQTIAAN

CAAX prenyl protease 2 = CAAX prenyl protease 2 (Saccharomyces cerevisiae S288c, UniProt Q03530); format: biochemical
Chain of CAAX prenyl protease 2 (Q03530 whole entry, the tested form may be a part): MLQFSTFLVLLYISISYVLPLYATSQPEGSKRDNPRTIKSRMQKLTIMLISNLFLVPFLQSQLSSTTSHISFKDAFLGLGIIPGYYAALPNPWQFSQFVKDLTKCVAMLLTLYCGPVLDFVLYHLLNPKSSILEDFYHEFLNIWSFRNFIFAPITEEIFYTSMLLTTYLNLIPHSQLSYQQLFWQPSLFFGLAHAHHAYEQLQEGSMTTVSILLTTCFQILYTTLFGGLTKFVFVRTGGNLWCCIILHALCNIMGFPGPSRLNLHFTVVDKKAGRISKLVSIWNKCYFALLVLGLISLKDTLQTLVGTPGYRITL

[21] = target: T4, RNA-binding protein pos-1 (Caenorhabditis elegans, UniProt G5EF15); assay: disruptors of C. elegans POS-1 RNA interaction – biochemical, fluorescence polarization, dose response (AID 1964);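 note: purified POS-1 fused to maltose binding protein made in E. coli; potency of compounds blocking POS-1 binding to fluorescent RNA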
T4 sequence (G5EF15 whole entry): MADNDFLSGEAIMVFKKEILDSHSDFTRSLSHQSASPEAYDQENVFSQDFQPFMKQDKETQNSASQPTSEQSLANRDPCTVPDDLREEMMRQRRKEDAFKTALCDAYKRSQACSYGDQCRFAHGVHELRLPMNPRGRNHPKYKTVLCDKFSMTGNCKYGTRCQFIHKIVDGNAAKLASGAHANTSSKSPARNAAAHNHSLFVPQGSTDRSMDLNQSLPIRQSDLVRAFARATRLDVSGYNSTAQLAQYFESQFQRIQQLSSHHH

[22] = target: T5, Zinc finger protein mex-5 (Caenorhabditis elegans, UniProt Q9XUB2); assay: potency of MEX-5 RNA-binding blockers – biochemical, C. elegans, fluorescence polarization, dose response (AID 1960)
T5 sequence (Q9XUB2 whole entry): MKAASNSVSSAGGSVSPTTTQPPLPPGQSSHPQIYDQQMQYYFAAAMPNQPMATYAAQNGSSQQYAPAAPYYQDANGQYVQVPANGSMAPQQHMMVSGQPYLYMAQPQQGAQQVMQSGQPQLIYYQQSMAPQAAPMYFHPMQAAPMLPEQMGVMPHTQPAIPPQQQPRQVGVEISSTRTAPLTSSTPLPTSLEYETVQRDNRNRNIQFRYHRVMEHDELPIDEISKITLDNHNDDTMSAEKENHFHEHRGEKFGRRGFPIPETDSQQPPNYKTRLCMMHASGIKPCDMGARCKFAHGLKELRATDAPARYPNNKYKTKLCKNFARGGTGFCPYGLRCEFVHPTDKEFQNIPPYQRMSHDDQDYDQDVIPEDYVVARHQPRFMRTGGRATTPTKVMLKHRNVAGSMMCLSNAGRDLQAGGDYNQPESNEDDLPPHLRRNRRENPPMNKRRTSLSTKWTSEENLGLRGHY

Large T antigen = Large T antigen (Simian virus 40, UniProt P03070); format: functional, Betapolyomavirus macacae;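 note: Confirmatory-stage PubChem screen for compounds that inhibit SV40 T antigen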
Chain of Large T antigen (P03070 whole entry): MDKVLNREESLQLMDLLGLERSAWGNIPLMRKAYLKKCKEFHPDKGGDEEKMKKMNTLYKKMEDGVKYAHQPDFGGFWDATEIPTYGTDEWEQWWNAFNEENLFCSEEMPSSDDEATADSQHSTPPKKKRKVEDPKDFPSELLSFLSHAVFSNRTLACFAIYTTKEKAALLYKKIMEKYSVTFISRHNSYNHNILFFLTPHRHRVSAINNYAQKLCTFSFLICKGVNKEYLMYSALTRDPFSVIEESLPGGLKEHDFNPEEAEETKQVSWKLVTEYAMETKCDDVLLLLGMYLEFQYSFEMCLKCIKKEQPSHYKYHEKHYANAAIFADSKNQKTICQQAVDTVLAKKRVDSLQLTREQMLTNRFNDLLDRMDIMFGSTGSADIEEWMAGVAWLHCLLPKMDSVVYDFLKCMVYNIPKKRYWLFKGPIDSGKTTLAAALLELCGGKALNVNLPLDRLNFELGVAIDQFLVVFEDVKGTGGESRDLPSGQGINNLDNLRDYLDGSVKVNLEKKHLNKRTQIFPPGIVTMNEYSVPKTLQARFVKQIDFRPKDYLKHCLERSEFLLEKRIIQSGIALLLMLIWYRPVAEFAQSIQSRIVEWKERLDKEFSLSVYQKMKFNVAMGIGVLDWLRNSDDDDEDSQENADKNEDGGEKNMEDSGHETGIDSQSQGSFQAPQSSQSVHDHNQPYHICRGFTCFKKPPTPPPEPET

Estrogen receptor beta [23] = target: T6, Estrogen receptor beta (Homo sapiens, UniProt Q92731);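 note: recombinant ER-beta bound to coactivator SRC1 peptide in presence of estradiol agonist; inhibitors block coactivator peptide binding and lower the FRET signal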
T6 sequence (Q92731 whole entry): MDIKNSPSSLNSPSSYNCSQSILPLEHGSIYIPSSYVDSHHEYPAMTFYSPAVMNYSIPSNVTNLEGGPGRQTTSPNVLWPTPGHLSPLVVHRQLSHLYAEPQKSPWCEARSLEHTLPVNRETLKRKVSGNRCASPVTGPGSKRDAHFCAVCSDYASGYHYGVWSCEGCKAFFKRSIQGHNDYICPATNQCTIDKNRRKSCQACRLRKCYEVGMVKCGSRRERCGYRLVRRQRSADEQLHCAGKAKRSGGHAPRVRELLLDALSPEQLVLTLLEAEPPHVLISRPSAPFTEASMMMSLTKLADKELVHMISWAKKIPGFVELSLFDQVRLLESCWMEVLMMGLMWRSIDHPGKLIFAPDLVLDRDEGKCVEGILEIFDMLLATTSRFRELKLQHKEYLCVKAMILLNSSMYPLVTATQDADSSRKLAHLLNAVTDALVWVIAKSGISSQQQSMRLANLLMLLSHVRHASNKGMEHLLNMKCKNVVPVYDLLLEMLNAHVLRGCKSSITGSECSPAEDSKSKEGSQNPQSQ

Estrogen receptor beta [24] = target: T6, Estrogen receptor beta; assay: blockers of SRC-3 recruitment to ERβ – biochemical, ELISA, streptavidin-HRP readout, orthogonal assay, confirmation (AID 1060)
[25] = target: Cyclin-dependent kinase 5/CDK5 activator 1 (Homo sapiens, UniProt Q00535); assay: blockade of human CDK5 activity – biochemical, cherry-picked samples, set 2, dose response (AID 504545)
[26] = target: FAD-linked sulfhydryl oxidase ALR (Homo sapiens, UniProt P55789); assay: ALR-catalysed DTT oxidation blockers – biochemical, H2O2 detection, luminescence, cherry-pick, dose response (AID 493248)
[27] = target: Dual specificity tyrosine-phosphorylation-regulated kinase 1A (Rattus norvegicus, UniProt Q63470); format: biochemical, Homo sapiens
[28] = reduction of Shn3 3'UTR-driven luciferase in osteoblasts – cell-based, Clone20 osteoblasts, firefly luciferase, cherry-picked, dose response (AID 624132); format: functional;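 note: firefly luciferase luminescence from reporter carrying the Shn3 3'UTR in osteoblasts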
[29] = loss of viability in HepG2 cells – cell-based, CellTiter-Glo, cherry-picked, cytotoxicity control for Shn3 inhibitor project, dose response (AID 624134); format: functional
[30] = non-specific 3'UTR reporter inhibition in Clone20-Shn3RL – cell-based, Renilla luciferase, cherry-picked, counter-screen for Shn3 inhibitor project, dose response (AID 624133); format: functional
[31] = activation of miR-122 Renilla sensor silencing – cell-based, Huh7 psiCHECK-miR122, Renilla luciferase, cherry-picked, dose response (AID 651956); format: functional;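 note: huh7 hepatoma cells stably carrying a psiCHECK-2 miR-122 sensor plasmid; renilla luciferase signal reporting endogenous miR-122 activity after 48 h compound exposure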
[32] = general mammalian cell viability loss – inhibitor set, cherry-pick, set 2, cytotoxicity control for miR-122 modulator project, dose response (AID 720697); format: functional, cell-based
[33] = target: Scavenger receptor class B member 1 (Mus musculus, UniProt Q61009); assay: mouse SR-BI DiI-HDL uptake blockers – ldlA[mSR-BI] cells, fluorescence, cherry pick, dose response (AID 493194); format: functional, cell-based;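 note: cellular uptake of fluorescent DiI-labeled HDL measured as cell fluorescence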
Chain of Scavenger receptor class B member 1 (Q61009 whole entry): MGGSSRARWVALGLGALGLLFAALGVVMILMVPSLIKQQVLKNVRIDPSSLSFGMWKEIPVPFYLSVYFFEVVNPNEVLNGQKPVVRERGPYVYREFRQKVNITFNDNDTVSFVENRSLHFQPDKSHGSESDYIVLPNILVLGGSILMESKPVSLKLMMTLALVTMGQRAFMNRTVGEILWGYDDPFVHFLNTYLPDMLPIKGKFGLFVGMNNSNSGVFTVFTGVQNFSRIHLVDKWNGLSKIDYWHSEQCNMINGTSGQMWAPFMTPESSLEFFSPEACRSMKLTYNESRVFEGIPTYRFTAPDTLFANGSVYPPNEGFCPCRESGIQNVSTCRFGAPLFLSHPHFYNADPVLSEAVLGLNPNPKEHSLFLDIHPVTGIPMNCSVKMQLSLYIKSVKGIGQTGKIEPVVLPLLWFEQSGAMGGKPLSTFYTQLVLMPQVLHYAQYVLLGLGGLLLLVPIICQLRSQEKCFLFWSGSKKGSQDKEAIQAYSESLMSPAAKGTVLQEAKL

[34] = target: Neurotensin receptor type 1 (Homo sapiens, UniProt P30989); format: functional;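 note: Image-based confirmatory dose-response assay measuring agonist activity at NTR1; NTR1-expressing U2OS osteosarcoma cells imaged for beta-arrestin GFP spot formation; agonist potency where compounds increase beta-arrestin recruitment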
Chain of Neurotensin receptor type 1 (P30989 whole entry): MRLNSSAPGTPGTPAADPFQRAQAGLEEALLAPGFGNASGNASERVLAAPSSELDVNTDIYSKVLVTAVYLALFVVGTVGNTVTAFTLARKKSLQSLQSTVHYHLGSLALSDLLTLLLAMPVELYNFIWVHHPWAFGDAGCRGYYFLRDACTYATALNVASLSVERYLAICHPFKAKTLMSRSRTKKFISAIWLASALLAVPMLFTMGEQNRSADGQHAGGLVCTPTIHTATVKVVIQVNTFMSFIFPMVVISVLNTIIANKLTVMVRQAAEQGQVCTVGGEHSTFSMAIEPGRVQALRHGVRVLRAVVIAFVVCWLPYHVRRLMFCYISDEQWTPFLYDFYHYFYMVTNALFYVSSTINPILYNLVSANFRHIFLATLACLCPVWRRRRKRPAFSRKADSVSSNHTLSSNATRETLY

INS1 = assay: INS-1E survival protection against cytokine death – cell-based, luminescence, retest, dose response (AID 449756); format: functional; conditions: Rattus norvegicus;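 note: cell death triggered by IL-1 beta plus TNF-alpha plus IFN-gamma mixture; protective hits raise ATP signal compared with cytokine alone wells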
Wee1-like protein kinase = Wee1-like protein kinase (Homo sapiens, UniProt P30291); assay: HeLa cell cycle G2/M accumulation – FACS, mechanism study for Wee1 degradation inhibitor project, late-stage follow-up, panel member Wee1 Degradation (AID 2088)
[35] = target: G2/mitotic-specific cyclin-B1 (Homo sapiens, UniProt P14635); assay: HeLa cell cycle G2/M accumulation – FACS, mechanism study for Wee1 degradation inhibitor project, late-stage follow-up, panel member Cyclin B Degradation (AID 2088)
Chain of G2/mitotic-specific cyclin-B1 (P14635 whole entry): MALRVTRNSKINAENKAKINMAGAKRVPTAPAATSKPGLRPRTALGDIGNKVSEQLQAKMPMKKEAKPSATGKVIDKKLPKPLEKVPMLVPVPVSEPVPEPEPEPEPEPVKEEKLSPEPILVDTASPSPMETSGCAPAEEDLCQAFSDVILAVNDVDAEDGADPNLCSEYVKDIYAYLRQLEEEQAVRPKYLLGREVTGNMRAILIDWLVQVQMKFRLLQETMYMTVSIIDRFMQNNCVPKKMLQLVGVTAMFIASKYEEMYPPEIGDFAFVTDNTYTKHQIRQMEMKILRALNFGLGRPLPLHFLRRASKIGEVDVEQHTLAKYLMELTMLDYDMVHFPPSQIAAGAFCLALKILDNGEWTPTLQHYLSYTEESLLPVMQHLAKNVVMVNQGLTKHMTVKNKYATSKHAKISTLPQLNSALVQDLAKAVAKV

## CCCOc1ccc(C(=O)C(CCC(CNCC)C(=O)c2ccc(OCCC)cc2)CNCC)cc1 (stereo unspecified)
[1]
  EC50: > 120 µM (not active)
BJ [2]
  EC50: 2.57 µM (inconclusive)
[3]
  EC50: 8.92 µM (active)
[4]
  EC50: 6.08 µM (active)
BJ [5]
  EC50: 4.61 µM (active)
[6]
  EC50: 1.76 µM (active)
Galanin receptor type 2
  EC50: > 55.7 µM (not active)
[7]
  EC50: 1.88 µM (active)
BJ [8]
  EC50: 2.72 µM (inconclusive)
[9]
  EC50: 3.31 µM (active)
[10]
  CC50: 3.18 µM (active)
BJ [11]
  EC50: 0.513 µM (active)
Melanocortin receptor 4
  EC50: > 89.2 µM (inactive)

## O=C(NNC(=S)NC1CCCCC1)c1ccccc1Br
[12]
  EC50: 21.7 µM (inconclusive)
[13]
  EC50: 2.94 µM (active)
[14]
  IC50: 50.3 µM (active)
[15]
  EC50: 12.1 µM (active)
[16]
  EC50: 14.9 µM (active)
[17]
  EC50: 16.1 µM (active)
[18]
  IC50: > 122 µM (inactive)

## Nc1[nH]c2cc([N+](=O)[O-])ccc2c1-c1ccccn1
[19]
  IC50: 0.787 µM (active)
[20]
  IC50: 82.9 µM (active)

## COc1ccc(-c2cc3nc(C)c(CCC(=O)N4CCN(c5ccccn5)CC4)c(C)n3n2)c(OC)c1
Trypsin
  AC50: 7.2 µM (active)
CAAX prenyl protease 2
  AC50: > 100 µM (inactive)

## Oc1ccc(-c2nc(-c3ccc(O)c(O)c3)cs2)cc1
[21]
  EC50: 33.5 µM (active)
BJ [2]
  EC50: 2.89 µM (inconclusive)
[22]
  EC50: 20.8 µM (inconclusive)
BJ [5]
  EC50: 41.4 µM (active)
Large T antigen
  IC50: 36.1 µM (active)
Estrogen receptor beta [23]
  IC50: 4.96 µM (active)
Estrogen receptor beta [24]
  IC50: 90.7 µM (not active)
BJ [8]
  EC50: > 150 µM (not active)
[9]
  EC50: 2.67 µM (inconclusive)
[25]
  AC50: 23.5 µM (active)
[26]
  AC50: 1.22 µM (active)
[27]
  AC50: 3.19 µM (active)
[28]
  AC50: 5.07 µM (active)
[29]
  AC50: > 70 µM (inactive)
[30]
  AC50: 5.09 µM (active)
[31]
  AC50: 29 µM (active)
[32]
  AC50: 1.31 µM (active)

## Cc1ccccc1NC(=O)NCC1CCN(c2ccc(S(=O)(=O)N3CCOCC3)cc2)CC1
[33]
  AC50: 1.04 µM (active)

## c1ccc(C(c2ccccc2)N2CCN(c3nc4ccccc4n4cnnc34)CC2)cc1
[34]
  EC50: 26.4 µM (inactive)
INS1
  AC50: 4.56 µM (active)

## Cc1cc(O)nc(-n2nc(C)cc2NC(=O)c2cccc(Br)c2)n1
Wee1-like protein kinase
  EC50: > 49.7 µM (inactive)
[35]
  EC50: > 49.7 µM (inactive)
